According to patent publication US12370182B2, “Bicyclic derivatives as GABAA A5 receptor modulators” (RICHTER GEDEON NYRT., priority 2018, dated 2025):

Legend:
[1] = molecular target: T1, human recombinant GABAA α5β3γ2 receptor (Homo sapiens (Human), UniProt P18507+P31644); test: Binding assay, [3H]Ro151788 displacement on membranes of HEK cells; conditions: 0.5 nM [3H]Ro151788, 60 minutes at 4° C., Cheng-Prusoff; read-out: hGABAA α5 Ki
Description: The GABAA α5β3γ2 protein used for the receptor binding assay was derived from membranes produced from HEK cells (Millipore CYL3073) expressing the human recombinant GABAA α5β3γ2 receptor. Cells were stored and cultured in-house according to the instructions provided by the vendor (Millipor). Cell pellet was homogenized in 10 times modified Krebs Henseleit buffer (membrane preparation buffer): 20 mM Tris, 120 mM NaCl, 100 mM KCl, 25 mM CaCl2) and 25 mM MgCl2 pH=7.4 at 4° C. using Ultra Turrax (Janke&Kunkel) maximal speed for 15 seconds. The homogenate was centrifuged at 40,000 g for 30 minutes at 4° C. Supernatant was discarded and the resulting pellet was washed in membrane preparation buffer. Pellet was resuspended in membrane preparation buffer and aliquots of 1.4 mL ampulles were stored at −70° C. until use.
Receptor binding assays were performed in 96-well format in deep-well plates. For each 96-well plate one ampulle of membrane homogenate was thawed and diluted in binding buffer (50 mM Tris pH=7.4, 100 mM KCl) and 200 μL was dispensed into each well. Radioligand [^3H]Ro151788 (Perkin Elmer: NET757250UC) was prepared in binding buffer and added to each well in 50 μL volume to give final concentration of 0.5 nM. Test compounds in suitable concentration(s) were added in additional 50 μL. The final assay volume was 300 μL. Incubation was carried out for 60 minutes at 4° C. For non-specific binding 10 μM unlabeled diazepam was used. After incubation samples were filtered over UniFilter® GF/B™ using Filtermate Harvester (Perkin Elmer) and washed with 5×1 mL binding buffer. The plate was dried at 40° C. for an hour and 40 μL Microscint (Perkin Elmer) scintillation cocktail was added to each well. The plate was read in Microbeta (Perkin Elmer).
The specific radioligand binding (SB) was defined as the difference between total binding (Tot) and the non-specific binding (NSB). Results are expressed as a percent inhibition of specific binding obtained in the presence of compound of interest.
For IC50 and Ki determination a minimum of six drug concentrations in triplicate were used. […] Ki values (i.e. inhibition constants) were calculated using the Cheng-Prusoff equation Ki=IC50/[1+(L/KD)], where [L] is the radioligand concentration and KD the affinity of the labelled ligand for receptor. KD was determined from the Saturation analyses.

[2] = molecular target: T1, human recombinant GABAA α5β3γ2 receptor; test: Functional assay, QPatch automated patch clamp, GABA-evoked currents; type: cell-based; conditions: test compound 10 μM, 1 μM GABA, HEK293 cells, percentage modulation of peak current
Description: (§1) Human HEK293 cell lines expressing GABAA α1β3γ2 and GABAAα5β3γ2 receptors were used in functional assays using the QPatch automated patch clamp system.
(§2) HEK293 cell lines stably expressing human recombinant GABAA α1β3γ2 receptor subunits (Millipore, CYL3073) or human recombinant GABAA α5β3γ2 receptor subunits (Millipore, CYL3053) were cultured in DMEM supplemented with 10% FBS (Gibco), passed two times per week and plated on Petri dishes previously coated with poly-d-lysine.
(§3) Automated whole-cell patch clamp recordings were made from cells 2-4 days after plating. Cells were detached using trypsin/EDTA (Sigma) treatment (2 minutes in 0.25% trypsin at 37° C.), then, after centrifugation (125 G, 3 min, 2×), resuspended in a serum-free based media (Gibco, CHO—S-SFM-II) containing 12.5 mM HEPES, 1× penicillin-streptomycin-amphotericin (SigmaMix) and soybean trypsin inhibitor (Sigma, 0.04 mg/ml).
(§4) Cell suspension, as well as the extracellular solution (130 mM NaCl, 5 mM KCl, 5.1 mM HEPES, 4.9 mM HEPES-Na, 10 mM CaCl2), 2 mM MgCl2, 10 mM glucose and 0.1% DMSO, pH=7.35-7.4) and the intracellular solution (80 mM KCl, 50 mM KF, 36 mM KOH, 10 mM EGTA, 10 mM HEPES, 1.75 mM MgCl2, 0.5 mM CaCl2), 4 mM Na2ATP. 14 mM phosphocreatine, 50 U/ml creatine-phosphokinase, 0.3 mM GTP, pH=7.25-7.3) were added to the QPatch-HTX automated patch clamp system (Sophion) in single-cell mode at room temperature. […] At the end of the experiment 100 μM GABA was applied to saturate the GABA-response and to assess the efficacy of the control GABA application.
(§5) The percentage modulation was calculated from the comparison of GABA-evoked peak current amplitudes in the presence and absence of the test compound.

[3] = molecular target: human recombinant GABAA α1β3γ2 receptor (Homo sapiens (Human), UniProt P14867+P18507); test: as above; type: cell-based; conditions: test compound 10 μM, 1 μM GABA, HEK293 cells, percentage modulation of peak current
Chain of human recombinant GABAA α1β3γ2 receptor (P14867 28-456): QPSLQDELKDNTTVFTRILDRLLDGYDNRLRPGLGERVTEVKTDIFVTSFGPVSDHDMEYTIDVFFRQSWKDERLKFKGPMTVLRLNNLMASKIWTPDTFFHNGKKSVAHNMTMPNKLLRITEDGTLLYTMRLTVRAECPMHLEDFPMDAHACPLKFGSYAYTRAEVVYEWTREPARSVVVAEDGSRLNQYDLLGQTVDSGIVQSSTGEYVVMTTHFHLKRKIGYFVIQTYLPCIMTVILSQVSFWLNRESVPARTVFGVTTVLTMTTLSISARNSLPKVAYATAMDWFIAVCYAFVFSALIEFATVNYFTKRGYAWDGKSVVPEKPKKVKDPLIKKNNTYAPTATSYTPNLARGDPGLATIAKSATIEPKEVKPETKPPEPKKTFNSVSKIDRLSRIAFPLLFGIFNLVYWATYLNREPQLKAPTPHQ
Chain of human recombinant GABAA α1β3γ2 receptor (P28472 26-473 partner): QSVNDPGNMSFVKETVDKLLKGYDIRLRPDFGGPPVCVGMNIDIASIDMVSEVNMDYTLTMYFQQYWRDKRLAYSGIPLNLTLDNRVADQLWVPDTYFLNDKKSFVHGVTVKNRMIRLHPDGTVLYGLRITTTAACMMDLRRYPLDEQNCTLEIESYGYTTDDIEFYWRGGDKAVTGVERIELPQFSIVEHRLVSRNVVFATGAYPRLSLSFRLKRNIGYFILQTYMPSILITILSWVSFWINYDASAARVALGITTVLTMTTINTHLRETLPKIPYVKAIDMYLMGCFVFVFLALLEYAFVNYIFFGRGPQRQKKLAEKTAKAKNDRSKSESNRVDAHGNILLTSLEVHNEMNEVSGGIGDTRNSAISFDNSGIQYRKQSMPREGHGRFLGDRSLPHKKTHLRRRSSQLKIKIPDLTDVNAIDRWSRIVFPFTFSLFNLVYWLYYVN
Chain of human recombinant GABAA α1β3γ2 receptor (P18507 40-475): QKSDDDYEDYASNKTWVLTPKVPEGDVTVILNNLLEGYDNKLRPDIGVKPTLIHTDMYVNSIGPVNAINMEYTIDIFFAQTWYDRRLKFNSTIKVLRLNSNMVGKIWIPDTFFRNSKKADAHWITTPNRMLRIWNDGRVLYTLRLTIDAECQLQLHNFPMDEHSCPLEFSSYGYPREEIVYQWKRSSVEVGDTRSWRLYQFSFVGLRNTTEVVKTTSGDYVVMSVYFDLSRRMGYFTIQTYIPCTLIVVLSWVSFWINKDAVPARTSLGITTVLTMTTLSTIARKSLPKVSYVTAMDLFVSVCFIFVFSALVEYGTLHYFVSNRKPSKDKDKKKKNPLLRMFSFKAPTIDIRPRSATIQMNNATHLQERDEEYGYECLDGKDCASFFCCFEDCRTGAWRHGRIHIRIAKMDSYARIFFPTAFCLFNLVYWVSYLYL
Description: as §1, §2, §3, §4, §5

T1 sequence (P31644 32-462): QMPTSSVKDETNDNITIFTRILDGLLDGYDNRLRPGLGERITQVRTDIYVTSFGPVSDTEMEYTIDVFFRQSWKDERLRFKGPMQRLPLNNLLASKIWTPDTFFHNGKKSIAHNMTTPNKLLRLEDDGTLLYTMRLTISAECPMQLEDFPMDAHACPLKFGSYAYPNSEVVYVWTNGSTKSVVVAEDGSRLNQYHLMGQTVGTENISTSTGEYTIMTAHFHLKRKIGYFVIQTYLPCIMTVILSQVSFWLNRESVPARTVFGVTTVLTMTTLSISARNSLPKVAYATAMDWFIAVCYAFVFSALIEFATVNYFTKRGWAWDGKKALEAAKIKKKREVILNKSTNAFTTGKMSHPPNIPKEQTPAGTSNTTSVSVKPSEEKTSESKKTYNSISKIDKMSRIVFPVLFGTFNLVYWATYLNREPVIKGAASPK
T1 sequence (P28472 26-473 partner): as the sequence (P28472 26-473 partner) above
T1 sequence (P18507 40-475): as the sequence (P18507 40-475) above

SMILES | Ki [1] [nM] | hGABAA α5 efficacy [2] [%] | hGABAA α1 efficacy [3] [%]
Cc1nnn(-c2ccc(F)cc2)c1COc1ccc2c(n1)CN(C(=O)C1CC1)C2 [Example 47, cyclopropyl(2-{[1-(4-fluorophenyl)-4-methyl-1H-1,2,3-triazol-5-yl]methoxy}-5,7-dihydro-6H-pyrrolo[3,4-b]pyridin-6-yl)methanone] | 7.2 | −34 | −10
Cc1nnn(-c2ccc(F)cc2)c1COc1ccc2c(n1)CCN(C(=O)C1CCCO1)C2 (stereo not shown) [Example 15, 2-{[1-(4-fluorophenyl)-4-methyl-1H-1,2,3-triazol-5-yl]methoxy}-6-(oxolane-2-carbonyl)-5,6,7,8-tetrahydro-1,6-naphthyridine] | 42 | −43 | −8
Cc1onc(-c2ccc(F)cc2)c1COc1ccc2c(n1)CCN(C(=O)CS(C)(=O)=O)C2 [Example 8, 1-(2-{[3-(4-fluorophenyl)-5-methyl-1,2-oxazol-4-yl]methoxy}-5,6,7,8-tetrahydro-1,6-naphthyridin-6-yl)-2-methanesulfonylethan-1-one] | 3.7 | −39 | −2
Cc1nnn(-c2ccc(F)cc2)c1COc1ccc2c(n1)CCN(C(=O)NC1CCOC1)C2 (stereo not shown) [Example 78, 2-{[1-(4-fluorophenyl)-4-methyl-1H-1,2,3-triazol-5-yl]methoxy}-N-(oxolan-3-yl)-5,6,7,8-tetrahydro-1,6-naphthyridine-6-carboxamide] | 28 | −34 | −3
Cc1nnn(-c2ccc(F)cc2)c1COc1ccc2c(n1)CCN(C(=O)C1CCOC1)C2 (stereo not shown) [Example 16, 2-{[1-(4-fluorophenyl)-4-methyl-1H-1,2,3-triazol-5-yl]methoxy}-6-(oxolane-3-carbonyl)-5,6,7,8-tetrahydro-1,6-naphthyridine] | 42 | −39 | −7
Cc1onc(-c2ccc(F)cc2)c1COc1ccc2c(n1)CCN(C(=O)C1CCS(=O)(=O)CC1)C2 [Example 6, 4-(2-{[3-(4-fluorophenyl)-5-methyl-1,2-oxazol-4-yl]methoxy}-5,6,7,8-tetrahydro-1,6-naphthyridine-6-carbonyl)-1lambda6-thiane-1,1-dione] | 2.7 | −38 | −10
Cc1nnn(-c2ccc(F)cc2)c1COc1ccc2c(n1)CN(C(=O)CC(C)C)C2 [Example 56, 1-(2-{[1-(4-fluorophenyl)-4-methyl-1H-1,2,3-triazol-5-yl]methoxy}-5H,6H,7H-pyrrolo[3,4-b]pyridin-6-yl)-3-methylbutan-1-one] | 17 | −40 | −14
Cc1nnn(-c2ccc(F)cc2)c1COc1ccc2c(n1)CN(C(=O)C1CCCO1)C2 (stereo not shown) [Example 61, 1-(4-fluorophenyl)-4-methyl-5-({[6-(oxolane-2-carbonyl)-5H,6H,7H-pyrrolo[3,4-b]pyridin-2-yl]oxy}methyl)-1H-1,2,3-triazole] | 4.8 | −41 | −20
Cn1nnc(-c2ccc(F)cc2)c1COc1ccc2c(n1)CN(C(=O)C1CCCOC1)C2 (stereo not shown) [Example 74, 4-(4-fluorophenyl)-1-methyl-5-({[6-(oxane-3-carbonyl)-5H,6H,7H-pyrrolo[3,4-b]pyridin-2-yl]oxy}methyl)-1H-1,2,3-triazole] | 46 | – | –
Cc1nnn(-c2ccc(F)cc2)c1COc1ccc2c(n1)CCN(C(=O)c1ccccn1)C2 [Example 26, 2-{[1-(4-fluorophenyl)-4-methyl-1H-1,2,3-triazol-5-yl]methoxy}-6-(pyridine-2-carbonyl)-5,6,7,8-tetrahydro-1,6-naphthyridine] | 80 | – | –
Cc1nnn(-c2ccc(Cl)cc2)c1COc1ccc2c(n1)CCN(C(=O)C1CCOC1)C2 (stereo not shown) [Example 29, 2-{[1-(4-chlorophenyl)-4-methyl-1H-1,2,3-triazol-5-yl]methoxy}-6-(oxolane-3-carbonyl)-5,6,7,8-tetrahydro-1,6-naphthyridine] | – | −25 | −2
Cc1nnn(-c2ccc(F)cc2)c1COc1ccc2c(n1)CN(C(=O)CF)C2 [Example 54, 2-fluoro-1-(2-{[1-(4-fluorophenyl)-4-methyl-1H-1,2,3-triazol-5-yl]methoxy}-5,7-dihydro-6H-pyrrolo[3,4-b]pyridin-6-yl)ethanone] | 5.3 | – | –
Cc1onc(-c2ccc(F)cc2)c1COc1ccc2c(n1)CCN(C(=O)C1CCCO1)C2 (stereo not shown) [Example 7, 2-{[3-(4-fluorophenyl)-5-methyl-1,2-oxazol-4-yl]methoxy}-6-(oxolane-2-carbonyl)-5,6,7,8-tetrahydro-1,6-naphthyridine] | 6.8 | – | –
Cc1onc(-c2ccc(F)cc2)c1COc1ccc2c(n1)CCN(C(=O)C1CC1)C2 [Example 5, 6-cyclopropanecarbonyl-2-{[3-(4-fluorophenyl)-5-methyl-1,2-oxazol-4-yl]methoxy}-5,6,7,8-tetrahydro-1,6-naphthyridine] | 7.8 | – | –
Cc1nnn(-c2ccc(F)cc2)c1COc1ccc2c(n1)CN(C(=O)C1CCC1)C2 [Example 57, 5-[({6-cyclobutanecarbonyl-5H,6H,7H-pyrrolo[3,4-b]pyridin-2-yl}oxy)methyl]-1-(4-fluorophenyl)-4-methyl-1H-1,2,3-triazole] | 14 | – | –
CC(=O)N1CCc2nc(OCc3c(C)nnn3-c3ccc(Cl)cc3)ccc2C1 [Example 36, 1-(2-{[1-(4-chlorophenyl)-4-methyl-1H-1,2,3-triazol-5-yl]methoxy}-5,6,7,8-tetrahydro-1,6-naphthyridin-6-yl)ethan-1-one] | 9.8 | – | –
Cc1onc(-c2ccc(F)cc2)c1COc1ccc2c(n1)CCN(C(=O)N1CCOCC1)C2 [Example 82, 2-{[3-(4-fluorophenyl)-5-methyl-1,2-oxazol-4-yl]methoxy}-6-(morpholine-4-carbonyl)-5,6,7,8-tetrahydro-1,6-naphthyridine] | 5.2 | – | –
Cc1nnn(-c2ccc(F)cc2)c1COc1ccc2c(n1)CCN(C(=O)Nc1ccc(Cl)cc1)C2 [Example 81, N-(4-chlorophenyl)-2-{[1-(4-fluorophenyl)-4-methyl-1H-1,2,3-triazol-5-yl]methoxy}-5,6,7,8-tetrahydro-1,6-naphthyridine-6-carboxamide] | 37 | – | –
Cc1nnn(-c2ccc(F)cc2)c1COc1ccc2c(n1)CCN(C(=O)C1CCCOC1)C2 (stereo not shown) [Example 30, 2-{[1-(4-fluorophenyl)-4-methyl-1H-1,2,3-triazol-5-yl]methoxy}-6-(oxane-3-carbonyl)-5,6,7,8-tetrahydro-1,6-naphthyridine] | 82 | – | –
CC(=O)N1CCc2nc(OCc3c(-c4ccc(F)cc4)noc3C)ccc2C1 [Example 1, 1-[2-{[3-(4-fluorophenyl)-5-methyl-1,2-oxazol-4-yl]methoxy}-7,8-dihydro-1,6-naphthyridin-6(5H)-yl]ethanone] | 2.8 | – | –
